“And” between values parts separate entries of the source, which are not always exact repeats. Identical values can stand only once. Records with an inconclusive call do not appear.
Tested on: BDF1 mice, colon carcinoma 38 sc, T/C %
Assay: NCI In Vivo Anticancer Drug Screen. Data for tumor model Colon Carcinoma 38 (subcutaneous) in B6D2F1 (BDF1) mice
Summary of the method: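 Mice with transplanted tumors are treated with compound or vehicle. Survival or tumor size is then measured in both groups. The ratio of treated to control gives the reported figure.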

[1] = endpoint: median tumor weight (est.), dose: 100.0 mg/kg/injection, schedule: Q07DX002 (ip), vehicle: saline with Tween-80, higher = larger tumour
[2] = endpoint: median tumor weight (est.), dose: 200.0 mg/kg/injection, schedule: Q07DX002 (ip), vehicle: saline with Tween-80, higher = larger tumour
[3] = endpoint: median tumor weight (est.), dose: 400.0 mg/kg/injection, schedule: Q07DX002 (ip), vehicle: saline with Tween-80, higher = larger tumour
[4] = endpoint: median tumor weight (est.), dose: 100.0 mg/kg/injection, schedule: Q07DX002 (ip), vehicle: saline, higher = larger tumour
[5] = endpoint: median tumor weight (est.), dose: 200.0 mg/kg/injection, schedule: Q07DX002 (ip), vehicle: saline, higher = larger tumour
[6] = endpoint: median tumor weight (est.), dose: 12.5 mg/kg/injection, schedule: Q07DX002 (ip), vehicle: saline with Tween-80, higher = larger tumour
[7] = endpoint: median tumor weight (est.), dose: 25.0 mg/kg/injection, schedule: Q07DX002 (ip), vehicle: saline with Tween-80, higher = larger tumour
[8] = endpoint: median tumor weight (est.), dose: 50.0 mg/kg/injection, schedule: Q07DX002 (ip), vehicle: saline with Tween-80, higher = larger tumour

In the case of Nc1nc(N)c2cc(S(=O)(=O)c3ccccc3)ccc2n1, the T/C (endpoint: median survival time, dose: 57.0 mg/kg/injection, schedule: Q06HX014 (ip), vehicle: saline with Tween-80, higher = longer survival) is reported as 166 % of control, the T/C (endpoint: median survival time, dose: 86.0 mg/kg/injection, schedule: Q06HX014 (ip), vehicle: saline with Tween-80, higher = longer survival) is reported as 205 % of control and the T/C (endpoint: median survival time, dose: 520.0 mg/kg/injection, schedule: Q07DX002 (ip), vehicle: saline with Tween-80, higher = longer survival) is reported as 118 % of control. For the same molecule, the T/C [1] was 106 % of control, the T/C [2] was 190 % of control and the T/C [3] was 169 % of control. For the same molecule, the T/C (endpoint: median tumor weight (est.), dose: 800.0 mg/kg/injection, schedule: Q07DX002 (ip), vehicle: saline with Tween-80, higher = larger tumour) was 21 % of control.
With CCN(CC)CCOC(=O)Cc1cccc2c(=O)cc(-c3ccc(Cl)cc3)oc12 the T/C [1] was 48 % of control and the T/C [2] was 4 % of control.
S=C=NCCc1ccccc1 was tested, and the T/C [1] was 82 % of control and 105 % of control.
For O=c1cc[nH]c(=O)o1, the T/C (endpoint: median tumor weight (est.), dose: 12.2 mg/kg/injection, schedule: Q01DX009 (ip), vehicle: water, higher = larger tumour) was 119 % of control, the T/C (endpoint: median tumor weight (est.), dose: 18.5 mg/kg/injection, schedule: Q01DX009 (ip), vehicle: water, higher = larger tumour) was 75 % of control and the T/C (endpoint: median tumor weight (est.), dose: 28.0 mg/kg/injection, schedule: Q01DX009 (ip), vehicle: water, higher = larger tumour) was 83 % of control.
With CC[As](=O)(O)CC the T/C (endpoint: median tumor weight (est.), dose: 12.5 mg/kg/injection, schedule: Q07DX002 (ip), vehicle: saline, higher = larger tumour) was 101 % of control, the T/C (endpoint: median tumor weight (est.), dose: 25.0 mg/kg/injection, schedule: Q07DX002 (ip), vehicle: saline, higher = larger tumour) was 110 % of control and the T/C [4] was 81 % of control. The T/C [5] was 97 % of control and the T/C (endpoint: median tumor weight (est.), dose: 400.0 mg/kg/injection, schedule: Q07DX002 (ip), vehicle: saline, higher = larger tumour) was 110 % of control.
Nc1ccc(Cl)cc1N was tested, and the T/C [6] was 75 % of control and 97 % of control and the T/C [7] was 78 % of control and 92 % of control.
For N=c1nc2n(cc1F)[C@@H]1O[C@H](CO)[C@@H](O)[C@@H]1O2, the T/C [4] was 118 % of control, the T/C (endpoint: median tumor weight (est.), dose: 100.0 mg/kg/injection, schedule: Q07DX002 (ip), vehicle: suspension in saline, higher = larger tumour) was 117 % of control and the T/C [5] was 193 % of control. For the same molecule, the T/C (endpoint: median tumor weight (est.), dose: 200.0 mg/kg/injection, schedule: Q07DX002 (ip), vehicle: suspension in saline, higher = larger tumour) was 93 % of control, the T/C (endpoint: median tumor weight (est.), dose: 400.0 mg/kg/injection, schedule: Q07DX002 (ip), vehicle: suspension in saline, higher = larger tumour) was 99 % of control and the T/C (endpoint: median tumor weight (est.), dose: 800.0 mg/kg/injection, schedule: Q07DX002 (ip), vehicle: saline, higher = larger tumour) was 102 % of control. The T/C (endpoint: median tumor weight (est.), dose: 1600.0 mg/kg/injection, schedule: Q07DX002 (ip), vehicle: saline, higher = larger tumour) was 53 % of control and the T/C (endpoint: median tumor weight (est.), dose: 1600.0 mg/kg/injection, schedule: Q07DX002 (ip), vehicle: suspension in saline, higher = larger tumour) was 40 % of control.
With CCCCc1ccc2nc(NC(=O)OC)[nH]c2c1 the T/C [6] was 114 % of control, the T/C [7] was 83 % of control and the T/C [8] was 98 % of control. The T/C [2] was 87 % of control.
In the case of O=C(NC1CCCCC1)OCc1c(COC(=O)NC2CCCCC2)c(-c2ccc(Cl)c(Cl)c2)n2c1CCC2, the T/C [6] is reported as 111 % of control, the T/C [7] is reported as 85 % of control and the T/C [8] is reported as 76 % of control. The T/C [1] was 95 % of control, the T/C [2] was 86 % of control and the T/C [3] was 80 % of control.
For O=C(C#Cc1ccccc1)c1ccccc1, the T/C (endpoint: median tumor weight (est.), dose: 3.12 mg/kg/injection, schedule: Q07DX002 (ip), vehicle: Klucel (hydroxypropylcellulose) (HPC), higher = larger tumour) was 73 % of control, the T/C (endpoint: median tumor weight (est.), dose: 3.12 mg/kg/injection, schedule: Q07DX002 (ip), vehicle: water, higher = larger tumour) was 106 % of control and the T/C (endpoint: median tumor weight (est.), dose: 6.25 mg/kg/injection, schedule: Q07DX002 (ip), vehicle: water, higher = larger tumour) was 77 % of control. The T/C (endpoint: median tumor weight (est.), dose: 12.5 mg/kg/injection, schedule: Q07DX002 (ip), vehicle: Klucel (hydroxypropylcellulose) (HPC), higher = larger tumour) was 83 % of control, the T/C (endpoint: median tumor weight (est.), dose: 12.5 mg/kg/injection, schedule: Q07DX002 (ip), vehicle: water, higher = larger tumour) was 110 % of control and the T/C (endpoint: median tumor weight (est.), dose: 25.0 mg/kg/injection, schedule: Q07DX002 (ip), vehicle: Klucel (hydroxypropylcellulose) (HPC), higher = larger tumour) was 101 % of control. The T/C (endpoint: median tumor weight (est.), dose: 25.0 mg/kg/injection, schedule: Q07DX002 (ip), vehicle: water, higher = larger tumour) was 117 % of control and the T/C (endpoint: median tumor weight (est.), dose: 50.0 mg/kg/injection, schedule: Q07DX002 (ip), vehicle: water, higher = larger tumour) was 54 % of control.
For CN(C)CCCNc1c2ccccc2nc2cccc([N+](=O)[O-])c12, the T/C (endpoint: median tumor weight (est.), dose: 0.03 mg/kg/injection, schedule: Q07DX002 (ip), vehicle: saline, higher = larger tumour) was 112 % of control and 104 % of control, the T/C (endpoint: median tumor weight (est.), dose: 0.06 mg/kg/injection, schedule: Q07DX002 (ip), vehicle: saline, higher = larger tumour) was 116 % of control and the T/C (endpoint: median tumor weight (est.), dose: 0.06 mg/kg/injection, schedule: Q07DX003 (ip), vehicle: saline, higher = larger tumour) was 93 % of control. The T/C (endpoint: median tumor weight (est.), dose: 0.12 mg/kg/injection, schedule: Q07DX003 (ip), vehicle: saline, higher = larger tumour) was 98 % of control and the T/C (endpoint: median tumor weight (est.), dose: 0.25 mg/kg/injection, schedule: Q07DX003 (ip), vehicle: saline, higher = larger tumour) was 101 % of control.

— PubChem BioAssay AID212 (DTP/NCI, 2004)
